# In US20080255192A1, “Methods and Compositions for Selectin Inhibition” (Wyeth, priority 2007, published 2008):
# Target: T1, P-selectin/PSGL-1 interaction (Homo sapiens, UniProt P16109)
# T1 construct: comprised of the lectin and epidermal growth factor-like (EGF) domains expressed in CHO cells; made in house; host or cells: CHO cells (P-LE)
# T1 sequence (P16109 42-198): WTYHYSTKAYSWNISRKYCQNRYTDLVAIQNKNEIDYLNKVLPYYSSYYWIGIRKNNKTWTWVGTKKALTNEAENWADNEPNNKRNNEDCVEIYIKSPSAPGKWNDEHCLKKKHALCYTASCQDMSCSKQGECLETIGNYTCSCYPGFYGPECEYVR
# Test: Biacore P-Selectin/PSGL-1 Inhibition Assay (surface plasmon resonance)
# Assay type: binding
# Conditions: 250 uM test compound, 500 nM P.LE, immobilized PSGL-1 19ek, 10% DMSO, pH 7.4
# Description: Surface plasmon resonance assays were performed on a Biacore 3000 instrument (Biacore Inc. Piscataway, N.J.) at 25° C. at a flow rate of 30 μL/minute and each assay consisted of a 60-second equilibration, a 60-μL sample injection (kinject), and a 300-second dissociation.
# A purified, monomeric, truncated form of human PSGL-1, “19ek”, that contained all the necessary P-selectin binding determinants (see Goetz, et al., J. Cell Biol., 1997, 137: 509-519; and Sako, et al., Cell, 1995, 83: 323-331) was biotinylated via amine chemistry (Sulfo-NHS-LC-Biotin, Peirce) at a unique C-terminal lysine residue (see Somers, et al., Cell, 2000, 103: 467-479) and immobilized on a Biacore SA sensor chip (Biacore Inc.), using an HBS-EP buffer (Biacore Inc.), and the target 600-700 RU. The coated chip was re-equilibrated with an HBS-P buffer (Biacore Inc.) to which 1 mM CaCl2 and 1 mM MgCl2 (both from Fisher) were added to ensure sufficient calcium for the calcium-dependent interaction between the receptor and the ligand.
# Test compounds were incubated for 1 hour in a 1.1× Biacore assay buffer. Each solution was centrifuged through a 0.2 µm filter, using a 96-well plate format (Millipore). Glycyrrhizin tri-sodium salt (TCI) was prepared as a positive control in parallel with the test compounds, in the same manner described above.
# A soluble recombinant truncated form of human P-selectin, P-LE, comprised of the lectin and epidermal growth factor-like (EGF) domains expressed in CHO cells (see Somers, et al., Cell, 2000, 103: 467-479) was added to each filtered test compound solution. Final concentrations of reagents were 500 nM P.LE, 250 or 500 μM test compound (depending on structure) or 1 mM glycyrrhizin, 10% DMSO, and 1× Biacore buffer ([…], 150 mM NaCl, 1 mM CaCl2, and 1 mM MgCl2 (all reagents from Fisher)), with a pH of 7.4. Compounds active at 250 μM were titrated to further define activity. Test samples were supplied to the Biacore instrument in a 96-well plate.
# The Biacore raw data file was exported as a text file to an Excel spreadsheet, where the buffer blanks bracketing the samples were averaged for each Biacore instrument flow cell (Fc), and subtracted from the averaged uninhibited P.LE samples and from all the other samples. The reference signal from Fcl (uncoated) was then subtracted from its corresponding active (coated) signal for each injection, a process known as double referencing (see Myszka, J. Mol. Recognit., 1999, 12(5): 279-284). The percent inhibition of binding was calculated by dividing the reference-subtracted inhibited signal by the reference-subtracted uninhibited signal, subtracting this value from 1, and multiplying the resulting value by 100. The replicate percent inhibition values were averaged and expressed as the mean ±standard deviation. The inter-experiment standard deviation of calculated percent inhibitions in the Biacore assay was ±5.
row,Compound,inhibition at 250 µM
1,"O=C(O)c1c(O)c(C2(c3ccc(Cl)cc3)CC2)nc2c3c(ccc12)CCCC3 [Compound 36, 2-(1-(4-chlorophenyl)cyclopropyl)-3-hydroxy-7,8,9,10-tetrahydrobenzo[h]quinoline-4-carboxylic acid]",67%
2,"O=C(O)c1c(O)c(C2(c3ccc(Cl)cc3)CC2)nc2c(C(F)(F)F)cccc12 [Compound 38, 2-(1-(4-chlorophenyl)cyclopropyl)-3-hydroxy-8-(trifluoromethyl)quinoline-4-carboxylic acid]",52%
3,"CC(C)c1cccc2c(C(=O)O)c(O)c(C3(c4ccc(Cl)cc4)CC3)nc12 [Compound 39, 2-(1-(4-chlorophenyl)cyclopropyl)-3-hydroxy-8-isopropylquinoline-4-carboxylic acid]",66%
4,"Cc1ccc2c(C(=O)O)c(O)c(C3(c4ccc(Cl)cc4)CC3)nc2c1C [Compound 40, 2-(1-(4-chlorophenyl)cyclopropyl)-3-hydroxy-7,8-dimethylquinoline-4-carboxylic acid]",53%
5,"O=C(O)c1c(O)c(C2(c3ccc(Cl)cc3)CC2)nc2c(C(O)(C(F)(F)F)C(F)(F)F)cccc12 [Compound 41, 2-(1-(4-chlorophenyl)cyclopropyl)-8-(1,1,1,3,3,3-hexafluoro-2-hydroxypropan-2-yl)-3-hydroxyquinoline-4-carboxylic acid]",≤ 10%
6,"O=C(O)c1c(O)c(C2(c3ccccc3)CC2)nc2ccc(C(O)(C(F)(F)F)C(F)(F)F)cc12 [Compound 48, 6-(1,1,1,3,3,3-hexafluoro-2-hydroxypropan-2-yl)-3-hydroxy-2-(1-phenylcyclopropyl)quinoline-4-carboxylic acid]",≤ 10%
7,"O=C(O)c1c(O)c(C2(c3ccccc3)CC2)nc2c(C(O)(C(F)(F)F)C(F)(F)F)cccc12 [Compound 49, 8-(1,1,1,3,3,3-hexafluoro-2-hydroxypropan-2-yl)-3-hydroxy-2-(1-phenylcyclopropyl)quinoline-4-carboxylic acid]",58%
8,"COc1ccc(C2(c3nc4c(C(F)(F)F)cccc4c(C(=O)O)c3O)CC2)cc1 [Compound 50, 3-hydroxy-2-(1-(4-methoxyphenyl)cyclopropyl)-8-(trifluoromethyl)quinoline-4-carboxylic acid]",36%
9,"COc1ccc(C2(c3nc4c5c(ccc4c(C(=O)O)c3O)CCCC5)CC2)cc1 [Compound 51, 3-hydroxy-2-(1-(4-methoxyphenyl)cyclopropyl)-7,8,9,10-tetrahydrobenzo[h]quinoline-4-carboxylic acid]",38%
10,"O=C(O)c1c(O)c(C2(c3ccc(C(F)(F)F)cc3)CC2)nc2c(C(F)(F)F)cccc12 [Compound 52, 3-hydroxy-8-(trifluoromethyl)-2-(1-(4-(trifluoromethyl)phenyl)cyclopropyl)quinoline-4-carboxylic acid]",47%
11,"O=C(O)c1c(O)c(C2(c3ccc(Br)cc3)CC2)nc2c(C(F)(F)F)cccc12 [Compound 53, 2-(1-(4-bromophenyl)cyclopropyl)-3-hydroxy-8-(trifluoromethyl)quinoline-4-carboxylic acid]",64%
12,"O=C(O)c1c(O)c(C2(c3cccc(Cl)c3)CC2)nc2c(C(F)(F)F)cccc12 [Compound 54, 2-(1-(3-chlorophenyl)cyclopropyl)-3-hydroxy-8-(trifluoromethyl)quinoline-4-carboxylic acid]",66%
13,"O=C(O)c1c(O)c(C2(c3ccccc3Cl)CC2)nc2c(C(F)(F)F)cccc12 [Compound 55, 2-(1-(2-chlorophenyl)cyclopropyl)-3-hydroxy-8-(trifluoromethyl)quinoline-4-carboxylic acid]",57%
14,O=C(O)c1c(O)c(C2(c3ccc(OC(F)(F)F)cc3)CC2)nc2c(C(F)(F)F)cccc12 [Compound 56],29%
15,"O=C(O)c1c(O)c(C2(c3cccc(C(F)(F)F)c3)CC2)nc2c(C(F)(F)F)cccc12 [Compound 57, 3-hydroxy-8-(trifluoromethyl)-2-(1-(3-(trifluoromethyl)phenyl)cyclopropyl)quinoline-4-carboxylic acid]",42%
16,"O=C(O)c1c(O)c(C2(c3ccc(Cl)cc3)CCC2)nc2c(C(F)(F)F)cccc12 [Compound 58, 2-(1-(4-chlorophenyl)cyclobutyl)-3-hydroxy-8-(trifluoromethyl)quinoline-4-carboxylic acid]",≤ 10%
17,"O=C(O)c1c(O)c(C2(c3ccsc3)CC2)nc2c(C(F)(F)F)cccc12 [Compound 59, 3-hydroxy-2-(1-(thiophen-3-yl)cyclopropyl)-8-(trifluoromethyl)quinoline-4-carboxylic acid]",≤ 10%
18,"O=C(O)c1c(O)c(C2(c3cccs3)CC2)nc2c(C(F)(F)F)cccc12 [Compound 60, 3-hydroxy-2-(1-(thiophen-2-yl)cyclopropyl)-8-(trifluoromethyl)quinoline-4-carboxylic acid]",15%
19,"O=C(O)c1c(O)c(C2(c3ccc(F)cc3)CC2)nc2c(C(F)(F)F)cccc12 [Compound 61, 2-(1-(4-fluorophenyl)cyclopropyl)-3-hydroxy-8-(trifluoromethyl)quinoline-4-carboxylic acid]",56%
20,"CC(C)c1cccc2c(C(=O)O)c(O)c(C3(c4ccc(F)cc4)CC3)nc12 [Compound 62, 2-(1-(4-fluorophenyl)cyclopropyl)-3-hydroxy-8-isopropylquinoline-4-carboxylic acid]",67%

# Continued, values first:
row,inhibition at 250 µM,Compound
1,≤ 10%,"Cc1ccc2nc(C3(c4ccccc4)CC3)c(O)c(C(=O)O)c2c1 [Compound 33, 3-hydroxy-6-methyl-2-(1-phenylcyclopropyl)quinoline-4-carboxylic acid]"
2,44%,"O=C(O)c1c(O)c(C2(c3ccccc3)CC2)nc2c(C(F)(F)F)cccc12 [Compound 34, 3-hydroxy-2-(1-phenylcyclopropyl)-8-(trifluoromethyl)quinoline-4-carboxylic acid]"
3,70%,"O=C(O)c1c(O)c(C2(c3ccccc3)CC2)nc2c(-c3ccsc3)cccc12 [Compound 35, 3-hydroxy-2-(1-phenylcyclopropyl)-8-(thiophen-3-yl)quinoline-4-carboxylic acid]"
4,78%,"O=C(O)c1c(O)c(C2(c3ccc(Cl)cc3)CC2)nc2c(-c3ccsc3)cccc12 [Compound 37, 2-(1-(4-chlorophenyl)cyclopropyl)-3-hydroxy-8-(thiophen-3-yl)quinoline-4-carboxylic acid]"
5,52%,"O=C(O)c1c(O)c(C2(c3ccccc3)CC2)nc2c3c(ccc12)CCCC3 [Compound 42, 3-hydroxy-2-(1-phenylcyclopropyl)-7,8,9,10-tetrahydrobenzo[h]quinoline-4-carboxylic acid]"
6,18%,"Cc1ccc2c(C(=O)O)c(O)c(C3(c4ccccc4)CC3)nc2c1C [Compound 43, 3-hydroxy-7,8-dimethyl-2-(1-phenylcyclopropyl)quinoline-4-carboxylic acid]"
7,63%,"CC(C)c1cccc2c(C(=O)O)c(O)c(C3(c4ccccc4)CC3)nc12 [Compound 44, 3-hydroxy-8-isopropyl-2-(1-phenylcyclopropyl)quinoline-4-carboxylic acid]"
8,37%,"O=C(O)c1c(O)c(C2(c3ccccc3)CC2)nc2c(-c3ccccc3)cccc12 [Compound 45, 3-hydroxy-8-phenyl-2-(1-Phenylcyclopropyl)quinoline-4-carboxylic acid]"
9,≤ 10%,"O=C(O)c1c(O)c(C2(c3ccccc3)CC2)nc2c(OC(F)(F)F)cccc12 [Compound 46, 3-hydroxy-2-(1-phenylcyclopropyl)-8-(trifluoromethoxy)quinoline-4-carboxylic acid]"
10,≤ 10%,"O=C(O)c1c(O)c(C2(c3ccccc3)CC2)nc2c(Cl)cccc12 [Compound 47, 8-chloro-3-hydroxy-2-(1-phenylcyclopropyl)quinoline-4-carboxylic acid]"
